Target: T1, BlrB (Cereibacter sphaeroides, UniProt Q3IYE4)
T1 construct: full-length short BLUF protein, residues 1-140, pET28a(+), His-tag removed by thrombin, E. coli BL21(DE3) glnA knockout; unlabelled and 15N-Gln samples
Test: light-induced FTIR difference spectroscopy of the reconstituted holoprotein
Type: binding
Conditions: FAD added for full reconstitution; flavin C4=O band of bound chromophore; pH 8.0; 20 °C

T1 sequence (Q3IYE4 entry or part of it): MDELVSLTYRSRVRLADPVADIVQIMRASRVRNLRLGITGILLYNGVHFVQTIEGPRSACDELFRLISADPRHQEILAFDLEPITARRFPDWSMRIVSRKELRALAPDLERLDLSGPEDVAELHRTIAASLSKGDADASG

## Cc1cc2nc3c(=O)[nH]c(=O)nc-3n(C[C@H](O)[C@H](O)[C@H](O)COP(=O)(O)OP(=O)(O)OC[C@H]3O[C@@H](n4cnc5c(N)ncnc54)[C@H](O)[C@@H]3O)c2cc1C [flavin adenine dinucleotide]
  light-induced FTIR difference spectroscopy of the reconstituted holoprotein: includes strong contributions from the C4=O stretch of flavin with an amide I band
